Test: xn = mol fraction of the nth substance listed
Details: 101 kPa

CO + CCCC[n+]1ccn(C)c1.[Cl-]
x2 = 0
Details	electrical conductivity [S/m]
293.15 K	0.003
303.15 K	0.004
313.15 K	0.007
323.15 K	0.011

CCCC[n+]1ccn(C)c1.[Cl-] + CO
electrical conductivity [S/m]
Details	x1 = 0.0011	x1 = 0.0022	x1 = 0.0035	x1 = 0.0045	x1 = 0.0056	x1 = 0.0068	x1 = 0.008	x1 = 0.0092	x1 = 0.0104
293.15 K	0.18	0.34	0.48	0.6	0.72	0.83	–	1.02	1.13
303.15 K	0.2	0.38	0.53	–	0.79	0.9	1.01	1.11	1.22
313.15 K	0.23	–	–	0.75	0.87	1.01	1.12	1.23	1.33
323.15 K	0.26	0.48	0.67	–	0.96	1.1	1.24	1.35	1.45
